Assay results from patent US7713965B2, “7-substituted 3-carboxy-oxadiazino-quinolone derivatives, their preparation and their application as anti-bacterials” (Vetoquinol SA, priority 2008, dated 2010).

Which melting point does the source give for `CN1COc2c(N3CCC(Nc4ncns4)C3)c(F)cc3c(=O)c(C(=O)O)cn1c23` (centres unmarked) (hydrate or solvate) here?
Its melting point is 285 °C (dec.).

For `Cc1nc(NC2CCN(c3c(F)cc4c(=O)c(C(=O)O)cn5c4c3OCN5C)C2)sc1C` (centres unmarked) (hydrate or solvate), which melting point is on record?
The melting point was 266 °C (dec.).

Which melting point does the source give for `Cc1csc(NC2CCN(c3c(F)cc4c(=O)c(C(=O)O)cn5c4c3OCN5C)C2)n1` (centres unmarked) (hydrate or solvate) here?
The melting point was 260 °C (dec.).

Which melting point does the source give for `Cc1cnc(NC2CCN(c3c(F)cc4c(=O)c(C(=O)O)cn5c4c3OCN5C)C2)s1` (centres unmarked) (hydrate or solvate) here?
Its melting point is 265 °C (dec.).

Which melting point does the source give for `Cc1cc(NC2CCN(c3c(F)cc4c(=O)c(C(=O)O)cn5c4c3OCN5C)C2)sn1` (centres unmarked) (hydrate or solvate) here?
Its melting point is 265 °C.

For `Cc1cc(NC2CCN(c3c(F)cc4c(=O)c(C(=O)O)cn5c4c3OCN5C)C2)on1` (centres unmarked) (hydrate or solvate), which melting point is on record?
The melting point was 244 °C (dec.).

With `Cc1cc(NC2CCN(c3c(F)cc4c(=O)c(C(=O)O)cn5c4c3OCN5C)C2)no1` (centres unmarked) (hydrate or solvate) as the compound, how does the melting point read?
The melting point was 263 °C (dec.).

Which melting point does the source give for `CN1COc2c(N3CCC(CN(c4cnccn4)c4cnccn4)C3)c(F)cc3c(=O)c(C(=O)O)cn1c23` (centres unmarked) (hydrate or solvate) here?
Its melting point is 213 to 215 °C.

For `CN1COc2c(N3CCC(NC4=NCCS4)C3)c(F)cc3c(=O)c(C(=O)O)cn1c23` (centres unmarked) (hydrate or solvate), which melting point is on record?
The melting point was 265 to 267 °C.

With `CN1COc2c(N3CCC(n4ccnn4)C3)c(F)cc3c(=O)c(C(=O)O)cn1c23` (centres unmarked) (hydrate or solvate) as the compound, how does the melting point read?
Its melting point is 264 °C (dec.).

With `CN1COc2c(N3CCC(c4nnn[nH]4)C3)c(F)cc3c(=O)c(C(=O)O)cn1c23` (centres unmarked) (hydrate or solvate) as the compound, how does the melting point read?
The melting point was 250 °C (dec.).

Which melting point does the source give for `CN1COc2c(N3CCC(NC(=O)c4ccco4)C3)c(F)cc3c(=O)c(C(=O)O)cn1c23` (centres unmarked) (hydrate or solvate) here?
The melting point was 306 to 308 °C.

With `CN1COc2c(N3CCC(NC(=O)CC(F)(F)F)C3)c(F)cc3c(=O)c(C(=O)O)cn1c23` (centres unmarked) (hydrate or solvate) as the compound, how does the melting point read?
The melting point was 292 °C (dec.).

For `CN1COc2c(N3CCC(NS(C)(=O)=O)C3)c(F)cc3c(=O)c(C(=O)O)cn1c23` (centres unmarked) (hydrate or solvate), which melting point is on record?
Its melting point is 261 °C (dec.).

Which melting point does the source give for `CN1COc2c(N3CC(O)C(C)(C)C3)c(F)cc3c(=O)c(C(=O)O)cn1c23` (centres unmarked) (hydrate or solvate) here?
Its melting point is 281 °C (dec.).

For `CN1COc2c(N3CCC(O)(c4nccs4)C3)c(F)cc3c(=O)c(C(=O)O)cn1c23` (centres unmarked) (hydrate or solvate), which melting point is on record?
Its melting point is 252 to 253 °C.

With `CN1COc2c(N3CCC(CNc4nccs4)C3)c(F)cc3c(=O)c(C(=O)O)cn1c23` (centres unmarked) (hydrate or solvate) as the compound, how does the melting point read?
The melting point was 268 to 270 °C.

Which melting point does the source give for `CO/N=C1\CCN(c2c(F)cc3c(=O)c(C(=O)O)cn4c3c2OCN4C)C1` (hydrate or solvate) here?
Its melting point is 241 to 243 °C.

With `CN1COc2c(N3CCC(Nc4cnccn4)CC3)c(F)cc3c(=O)c(C(=O)O)cn1c23` (hydrate or solvate) as the compound, how does the melting point read?
Its melting point is 239 °C (dec.).

Which melting point does the source give for `CN1COc2c(N3CCC(Nc4ccccn4)CC3)c(F)cc3c(=O)c(C(=O)O)cn1c23` (hydrate or solvate) here?
Its melting point is 264 °C (dec.).

Which melting point does the source give for `CN1COc2c(N3CCC(Nc4nccs4)CC3)c(F)cc3c(=O)c(C(=O)O)cn1c23` (hydrate or solvate) here?
The melting point was 280 °C.

With `CN1COc2c(N3CCC(NC(=O)c4ccco4)CC3)c(F)cc3c(=O)c(C(=O)O)cn1c23` (hydrate or solvate) as the compound, how does the melting point read?
Its melting point is 293 to 295 °C.

Which melting point does the source give for `CN1COc2c(N3CCC(N4CCCCC4)CC3)c(F)cc3c(=O)c(C(=O)O)cn1c23` (hydrate or solvate) here?
The melting point was 249 °C (dec.).

With `CN1COc2c(N3CCC(N4CCCC4)CC3)c(F)cc3c(=O)c(C(=O)O)cn1c23` (hydrate or solvate) as the compound, how does the melting point read?
Its melting point is 267 to 269 °C.

Which melting point does the source give for `CN1COc2c(N3CC[C@H](NC(=O)C(F)(F)F)C3)ccc3c(=O)c(C(=O)O)cn1c23` (hydrate or solvate) here?
The melting point was 310 °C (dec.).

With `CN1COc2c(N3CC[C@@H](Nc4nccs4)C3)ccc3c(=O)c(C(=O)O)cn1c23` (hydrate or solvate) as the compound, how does the melting point read?
The melting point was 275 °C (dec.).

For `Cc1nnc(NCC2CCN(c3c(F)cc4c(=O)c(C(=O)O)cn5c4c3OCN5C)C2)o1` (centres unmarked) (hydrate or solvate), which melting point is on record?
Its melting point is 240 °C.

For `CC1Oc2c(N3CC[C@H](NC(=O)C(F)(F)F)C3)ccc3c(=O)c(C(=O)O)cn(c23)N1C` (some centres unmarked) (hydrate or solvate), which melting point is on record?
Its melting point is 260 °C.

Which melting point does the source give for `CC1Oc2c(N3CC[C@@H](Nc4nccs4)C3)c(F)cc3c(=O)c(C(=O)O)cn(c23)N1C` (some centres unmarked) (hydrate or solvate) here?
The melting point was 224 to 226 °C.

Which melting point does the source give for `CN1n2cc(C(=O)O)c(=O)c3cc(F)c(N4CC[C@@H](Nc5nccs5)C4)c(c32)OC1(C)C` (hydrate or solvate) here?
The melting point was 235 to 237 °C.

Which melting point does the source give for `CC1Oc2c(N3CC[C@@H](Nc4nccs4)C3)ccc3c(=O)c(C(=O)O)cn(c23)N1C` (some centres unmarked) (hydrate or solvate) here?
Its melting point is 260 to 263 °C.

With `CN1n2cc(C(=O)O)c(=O)c3ccc(N4CC[C@@H](Nc5nccs5)C4)c(c32)OC1(C)C` (hydrate or solvate) as the compound, how does the melting point read?
Its melting point is 287 °C (dec.).

For `CC1Oc2c(N3C[C@H](N)C(C)(C)C3)c(F)cc3c(=O)c(C(=O)O)cn(c23)N1C` (some centres unmarked) (hydrate or solvate), which melting point is on record?
Its melting point is 212 to 214 °C.

Which melting point does the source give for `CN1COc2c(N3CCC(CNC(=O)c4ccco4)C3)c(F)cc3c(=O)c(C(=O)O)cn1c23` (centres unmarked) (hydrate or solvate) here?
Its melting point is 278 to 280 °C.

With `CN1n2cc(C(=O)O)c(=O)c3cc(F)c(N4C[C@H](N)C(C)(C)C4)c(c32)OC1(C)C` (hydrate or solvate) as the compound, how does the melting point read?
Its melting point is 255 to 257 °C.

For `CN1COc2c(N3C[C@@H](Nc4nccs4)C(C)(C)C3)c(F)cc3c(=O)c(C(=O)O)cn1c23` (hydrate or solvate), which melting point is on record?
The melting point was 265 °C (dec.).

With `CN1COc2c(N3C[C@H](Nc4nccs4)C(C)(C)C3)c(F)cc3c(=O)c(C(=O)O)cn1c23` (hydrate or solvate) as the compound, how does the melting point read?
The melting point was 271 to 273 °C.

For `CN1COc2c(N3CC[C@@H](n4ccnn4)C3)c(F)cc3c(=O)c(C(=O)O)cn1c23` (hydrate or solvate), which melting point is on record?
The melting point was 235 °C (dec.).

With `CN1COc2c(N3CC[C@H](n4ccnn4)C3)c(F)cc3c(=O)c(C(=O)O)cn1c23` (hydrate or solvate) as the compound, how does the melting point read?
Its melting point is 235 °C (dec.).

For `Cc1cc(N[C@@H]2CCN(c3c(F)cc4c(=O)c(C(=O)O)cn5c4c3OCN5C)C2)on1` (hydrate or solvate), which melting point is on record?
The melting point was 255 to 257 °C.

For `Cc1cc(N[C@H]2CCN(c3c(F)cc4c(=O)c(C(=O)O)cn5c4c3OCN5C)C2)on1` (hydrate or solvate), which melting point is on record?
The melting point was 255 to 257 °C.

With `CN1COc2c(N3CC[C@H](Nc4ncc[nH]4)C3)c(F)cc3c(=O)c(C(=O)O)cn1c23` (hydrate or solvate) as the compound, how does the melting point read?
The melting point was 245 °C (dec.).

For `CN1COc2c(N3CC[C@@H](Nc4ncc[nH]4)C3)c(F)cc3c(=O)c(C(=O)O)cn1c23` (hydrate or solvate), which melting point is on record?
The melting point was 225 °C (dec.).

For `CN(c1nccs1)[C@@H]1CCN(c2c(F)cc3c(=O)c(C(=O)O)cn4c3c2OCN4C)C1` (hydrate or solvate), which melting point is on record?
Its melting point is 222 to 224 °C.

Which melting point does the source give for `CN1COc2c(N3CC(N)C(c4nccs4)C3)c(F)cc3c(=O)c(C(=O)O)cn1c23` (centres unmarked) (hydrate or solvate) here?
The melting point was 240 to 245 °C.

With `CN1COc2c(N3CC[C@@H](Nc4cnccn4)C3)c(F)cc3c(=O)c(C(=O)O)cn1c23` (hydrate or solvate) as the compound, how does the melting point read?
The melting point was 255 °C (dec.).

With `Cc1nnc(NC2CCN(c3c(F)cc4c(=O)c(C(=O)O)cn5c4c3OCN5C)C2)o1` (centres unmarked) (hydrate or solvate) as the compound, how does the melting point read?
The melting point was 285 °C.
